Measurements taken from patent US20170190671A1, “BIS(ARYL)CATECHOL DERIVATIVES AS HERBICIDES” (E I DU PONT DE NEMOURS AND COMPANY, priority 2014, published 2017).

Key:
Type in all cases: in vivo
[1] = test system: barnyardgrass (Echinochloa crus-galli); experiment: Test B flooded paddy; details: 250 g ai/ha, Flood, 13 to 15 days, scale 0 (no effect) to 100 (complete control)
Method in brief: (§1)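 Flooded 3 cm over soil; compound into paddy water; depth kept constant. Greenhouse 13–15 d.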

[2] = test system: ducksalad (Heteranthera limosa); experiment: Test B flooded paddy; details: 250 g ai/ha, Flood, 13 to 15 days, scale 0 (no effect) to 100 (complete control)
Method in brief: as §1

rice (Oryza sativa) = experiment: Test B flooded paddy; details: 250 g ai/ha, Flood, 13 to 15 days, scale 0 (no effect) to 100 (complete control)
Method in brief: as §1

[3] = test system: sedge, umbrella (small-flower umbrella sedge, Cyperus difformis); experiment: Test B flooded paddy; details: 250 g ai/ha, Flood, 13 to 15 days, scale 0 (no effect) to 100 (complete control)
Method in brief: as §1

[4] = test system: Italian ryegrass (Lolium multiflorum); experiment: Test A preemergence; details: 1000 g ai/ha, 0 to 100 scale
Method in brief: (§2)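 Scoring: eye-based comparison with untreated controls, 0 for no effect through 100 for complete control, at about day 10. Treatments: directed soil spray preemergence; foliar spray postemergence on 2–10 cm plants at the one- to two-leaf stage. Medium: loam soil with sand.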

[5] = test system: barnyardgrass (Echinochloa crus-galli); experiment: Test A preemergence; details: 1000 g ai/ha, 0 to 100 scale
Method in brief: as §2

[6] = test system: giant foxtail (Setaria faberii); experiment: Test A preemergence; details: 1000 g ai/ha, 0 to 100 scale
Method in brief: as §2

kochia (Kochia scoparia) [7] = experiment: Test A preemergence; details: 1000 g ai/ha, 0 to 100 scale
Method in brief: as §2

[8] = test system: pigweed (Amaranthus retroflexus); experiment: Test A preemergence; details: 1000 g ai/ha, 0 to 100 scale
Method in brief: as §2

[9] = test system: ragweed (common ragweed, Ambrosia elatior); experiment: Test A preemergence; details: 1000 g ai/ha, 0 to 100 scale
Method in brief: as §2

[10] = test system: Italian ryegrass (Lolium multiflorum); experiment: Test A postemergence; details: 1000 g ai/ha, 0 to 100 scale
Method in brief: as §2

[11] = test system: barnyardgrass (Echinochloa crus-galli); experiment: Test A postemergence; details: 1000 g ai/ha, 0 to 100 scale, 0 no effect, 100 complete control
Method in brief: as §2

[12] = test system: blackgrass (Alopecurus myosuroides); experiment: Test A postemergence; details: 1000 g ai/ha, 0 to 100 scale
Method in brief: as §2

corn (Zea mays) = experiment: Test A postemergence; details: 1000 g ai/ha, 0 to 100 scale
Method in brief: as §2

[13] = test system: galium (catchweed bedstraw, Galium aparine); experiment: Test A postemergence; details: 1000 g ai/ha, 0 to 100 scale
Method in brief: as §2

[14] = test system: giant foxtail (Setaria faberii); experiment: Test A postemergence; details: 1000 g ai/ha, 0 to 100 scale
Method in brief: as §2

kochia (Kochia scoparia) [15] = experiment: Test A postemergence; details: 1000 g ai/ha, 0 to 100 scale
Method in brief: as §2

[16] = test system: pigweed (Amaranthus retroflexus); experiment: Test A postemergence; details: 1000 g ai/ha, 0 to 100 scale
Method in brief: as §2

[17] = test system: ragweed (common ragweed, Ambrosia elatior); experiment: Test A postemergence; details: 1000 g ai/ha, 0 to 100 scale
Method in brief: as §2

[18] = test system: wheat (Triticum aestivum); experiment: Test A postemergence; details: 1000 g ai/ha, 0 to 100 scale
Method in brief: as §2

[19] = test system: galium (catchweed bedstraw, Galium aparine); experiment: Test C preemergence; details: scale 0 to 100
Method in brief: (§3)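 Visual ratings (0 none to 100 complete control) were made 13 to 15 days after treatment, relative to controls. Test chemicals, formulated in a non-phytotoxic solvent mixture with surfactant, were applied in the greenhouse preemergence to seeded loam-sand soil or postemergence to plants 2 to 18 cm tall.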

[20] = test system: lambsquarters (Chenopodium album); experiment: Test C preemergence; details: scale 0 to 100
Method in brief: as §3

[21] = test system: yellow nutsedge (Cyperus esculentus); experiment: Test C preemergence; details: scale 0 to 100
Method in brief: as §3

FC(F)(F)c1cnc(Oc2c(Br)cccc2Oc2ncc(Cl)cn2)nc1 [Compound 24]
30: Plant response rating, Nutsedge, Yellow ([21]; 125 g ai/ha, Preemergence)
60: Plant response rating, Ragweed [17] | Plant response rating, Nutsedge, Yellow ([21]; 250 g ai/ha, preemergence)
80: Plant response rating, Ryegrass, Italian [4] | Plant response rating, Ryegrass, Italian [10]
75: Plant response rating, Lambsquarters ([20]; 31 g ai/ha, Preemergence)
100: Plant response rating, Ducksalad [2] | Plant response rating, Sedge, Umbrella [3] | Plant response rating, Barnyardgrass [5] | Plant response rating, Foxtail, Giant [6] | Plant response rating, Pigweed [8] | Plant response rating, Pigweed [16] | Plant response rating, Galium ([19]; 125 g ai/ha, Preemergence) | Plant response rating, Galium ([19]; 250 g ai/ha, preemergence)
70: Plant response rating, Ragweed [9] | Plant response rating, Blackgrass [12]
98: Plant response rating, Galium ([19]; 31 g ai/ha, Preemergence) | Plant response rating, Galium ([19]; 62 g ai/ha, Preemergence) | Plant response rating, Lambsquarters ([20]; 125 g ai/ha, Preemergence) | Plant response rating, Lambsquarters ([20]; 250 g ai/ha, preemergence)
10: Plant response rating, Nutsedge, Yellow ([21]; 31 g ai/ha, Preemergence) | Plant response rating, Nutsedge, Yellow ([21]; 62 g ai/ha, Preemergence)
90: Plant response rating, Rice (rice (Oryza sativa)) | Plant response rating, Kochia (kochia (Kochia scoparia) [7]) | Plant response rating, Barnyardgrass [11] | Plant response rating, Galium [13] | Plant response rating, Foxtail, Giant [14] | Plant response rating, Kochia (kochia (Kochia scoparia) [15]) | Plant response rating, Lambsquarters ([20]; 62 g ai/ha, Preemergence)
50: Plant response rating, Barnyardgrass [1] | Plant response rating, Corn (corn (Zea mays)) | Plant response rating, Wheat [18]
